Laboratory results taken from patent US6593299B1, “Compositions and methods for controlling pests” (priority 1999, dated 2003).
Square brackets hold non-standard residues; d marks the D form. Peptide text beside a SMILES is read from it.

Legend:
[1] = system: fourth instar Heliothis virescens; assay: Feeding TMOF analogs to fourth instar H. virescens: larval weight; format: in vivo; conditions: fourth instar larvae; for Weight Gain: 0.8 mg of analogue, 5 days; for Weight mg ± S.E.M. End: synthetic food and 0.8 mg of analogue, after 5 days; for Weight mg ± S.E.M. Start: weight before feeding (baseline)
Procedure: (§1) Several analogues were chosen and were fed to fourth instar Heliothis virescens for seven (7) days and to first instars for fourteen (14) days (Tables 3 and 4). In both cases a reduction in weight gain and trypsin inhibition was noted (Tables 3 and 4).
(§2) Individual first instar and fourth instar larvae of H. virescens were maintained in separate plastic cups and were fed on artificial diet blocks on which different concentrations of TMOF (0 to 1.6 mg) were adsorbed. Larvae were fed for 5 to 14 days and larval weight and trypsin activity were measured at the end of the experimental periods. […] When first instar larvae were fed for 14 days, an 18% and 26% reduction in weight was observed when analogues 15 and 16 were used (Table 4).
Fourth instar larvae were weighed and fed on synthetic food and 0.8 mg of TMOF analogues for 5 days. […]. Results are average of 3 to 10 experiments S.E.M.

[2] = system: first instar Heliothis virescens; assay: Feeding first instar H. virescens on TMOF analogs for 14 days; format: in vivo; set-up: Weight Reduction ± S.E.M.: concentration or dose not given beside the values; conditions: first instar larvae fed 14 days; for Weight Reduction ± S.E.M.: versus control
Procedure: as §1, §2

TTLE biosynthesis = assay: Feeding TMOF analogs to fourth instar H. virescens: gut trypsin (TTLE) biosynthesis by [3H]DFP; format: in vivo, Heliothis virescens; set-up: Trypsin: unit not given here; conditions: fourth instar larvae, 0.8 mg of analogue, 5 days; for Trypsin: guts incubated with [3H]DFP; for Inhibition (trypsin): versus control
Aedes aegypti larvae = assay: Feeding TMOF and analog peptides to mosquito larvae (LD50); format: in vivo; conditions: newly hatched larvae on autoclaved yeast 1 mg/ml, peptide 0 to 5.0 mg/ml, microtiter plates, 7 days
Source text: TMOF can traverse the gut epithelium, enter the hemolymph and bind a gut receptor (Borovsky, D. and F. Mahmood (1995) “Feeding the mosquito Aedes aegypti with TMOF and its analogs; effect on trypsin biosynthesis and egg development,” Regulatory Peptides 57:273-281.; Borovsky et al. (1994) “Characterization and localization of mosquito-gut receptors for trypsin modulating oostatic factor using complementary peptide immunochemistry”FASEB J. 8:350-355.). This characteristic permits the testing of TMOF and its analogues by feeding them to mosquito and other pest larvae. To find out if truncated TMOF peptides have an effect on larval growth and development, a series of peptides were synthesized and tested by feeding them to mosquito larvae at concentrations of 0 to 5.0 mg/ml (Table 2). Individual, newly hatched Aedes aegypti larvae were maintained in separate microtiter plate wells on a diet of autoclaved yeast (1 mg/ml). The diet was supplemented with TMOF peptides (Table 2). An identical number of larvae maintained on yeast served as a control. […] All control groups survived and larval growth and development was normal. Since larvae swallow only a small portion of the yeast particles adsorbed the peptides, it is assumed that approximately 1 to 20 ng are taken orally at the high concentrations.

## C[C@H](NC(=O)[C@@H]1CCCN1C(=O)[C@@H](CC(=O)O)NC(=O)[C@@H](N)Cc1ccc(O)cc1)C(=O)N1CCC[C@H]1C(=O)O [17. Y(D)DPAP, Y(D)DPAP] (H-Y[dD]PAP-OH; N-terminus and C-terminus assumed)
[1]
  Weight Gain: 153 mg
  Weight mg ± S.E.M. End: 188 ± 12 mg
  Weight mg ± S.E.M. Start: 34.6 ± 2 mg
[2]
  Number of Dead Larvae: 1
  Weight ± S.E.M.: 152 ± 27 mg
  Weight Reduction ± S.E.M.: 7 ± 1%
TTLE biosynthesis
  Trypsin: 2.1 ± 0.2
  Inhibition (trypsin): 15 ± 1.3%

## N[C@@H](Cc1ccc(O)cc1)C(=O)N[C@H](CC(=O)O)C(=O)N1CCC[C@H]1C(=O)O [22. Y(D)DP, Y(D)DP] (H-Tyr-[dD]-Pro-OH; N-terminus and C-terminus assumed)
Aedes aegypti larvae
  LD50 + S.E.M.: 0.28 ± 0.01 mM

## N[C@H](Cc1ccc(O)cc1)C(=O)N[C@@H](CC(=O)O)C(=O)N1CCC[C@H]1C(=O)O [24. (D)YDP, (D)YDP] (H-[dY]-Asp-Pro-OH; N-terminus and C-terminus assumed)
Aedes aegypti larvae
  LD50 + S.E.M.: 0.51 ± 0.05 mM

## C[C@H](NC(=O)[C@H](C)NC(=O)[C@@H](N)CC(=O)O)C(=O)O [25. DAA, DAA] (H-Asp-Ala-Ala-OH; N-terminus and C-terminus assumed)
Aedes aegypti larvae
  LD50 + S.E.M.: 0.91 ± 0.06 mM

## N[C@@H](Cc1ccc(O)cc1)C(=O)N[C@@H](CC(=O)O)C(=O)NCC(=O)O [26. YDG, YDG] (H-Tyr-Asp-Gly-OH; N-terminus and C-terminus assumed)
Aedes aegypti larvae
  LD50 + S.E.M.: 0.95 ± 0.11 mM

## N[C@@H](Cc1ccc(O)cc1)C(=O)N[C@@H](CC(=O)O)C(=O)N[C@@H](Cc1ccccc1)C(=O)O [27. YDF, YDF] (H-Tyr-Asp-Phe-OH; N-terminus and C-terminus assumed)
Aedes aegypti larvae
  LD50 + S.E.M.: 0.97 ± 0.11 mM

## C[C@H](N)C(=O)N1CCC[C@H]1C(=O)N[C@@H](C)C(=O)O [28. APA, APA] (H-Ala-Pro-Ala-OH; N-terminus and C-terminus assumed)
Aedes aegypti larvae
  LD50 + S.E.M.: 1.0 ± 0.07 mM

## C[C@H](N)C(=O)N[C@@H](C)C(=O)N1CCC[C@H]1C(=O)O [29. AAP, AAP] (H-Ala-Ala-Pro-OH; N-terminus and C-terminus assumed)
Aedes aegypti larvae
  LD50 + S.E.M.: 1.08 ± 0.07 mM

## N[C@@H](Cc1ccc(O)cc1)C(=O)N[C@@H](CO)C(=O)N[C@@H](Cc1ccccc1)C(=O)O [30. YSF, YSF] (H-Tyr-Ser-Phe-OH; N-terminus and C-terminus assumed)
Aedes aegypti larvae
  LD50 + S.E.M.: 1.08 ± 0.12 mM

## N[C@@H](CC(=O)O)C(=O)N[C@@H](Cc1ccc(O)cc1)C(=O)N1CCC[C@H]1C(=O)O [31. DYP, DYP] (H-Asp-Tyr-Pro-OH; N-terminus and C-terminus assumed)
Aedes aegypti larvae
  LD50 + S.E.M.: 1.27 ± 0.17 mM
[1]
  Weight Gain: 180.5 mg
  Weight mg ± S.E.M. End: 216.7 ± 13 mg
  Weight mg ± S.E.M. Start: 36.2 ± 2.4 mg
[2]
  Number of Dead Larvae: 1
  Weight ± S.E.M.: 149 ± 9 mg
  Weight Reduction ± S.E.M.: 9 ± 0.5%
TTLE biosynthesis
  Trypsin: 2.2 ± 0.3
  Inhibition (trypsin): 14 ± 1.8%

## C[C@H](NC(=O)[C@H](CC(=O)O)NC(=O)[C@@H](N)Cc1ccc(O)cc1)C(=O)O [32. YDA, YDA] (H-Tyr-Asp-Ala-OH; N-terminus and C-terminus assumed)
Aedes aegypti larvae
  LD50 + S.E.M.: 1.6 ± 0.13 mM

## N[C@@H](Cc1ccccc1)C(=O)N[C@@H](CC(=O)O)C(=O)N1CCC[C@H]1C(=O)O [33. FDP, FDP] (H-Phe-Asp-Pro-OH; N-terminus and C-terminus assumed)
Aedes aegypti larvae
  LD50 + S.E.M.: 1.98 ± 0.6 mM

## N[C@@H](Cc1ccc(O)cc1)C(=O)N[C@@H](CC(=O)O)C(=O)N1CCC[C@H]1C(=O)O [34. YDP, YDP] (H-Tyr-Asp-Pro-OH; N-terminus and C-terminus assumed)
Aedes aegypti larvae
  LD50 + S.E.M.: 2.3 ± 0.4 mM
[1]
  Weight Gain: 186.3 mg
  Weight mg ± S.E.M. End: 223.4 ± 16 mg
  Weight mg ± S.E.M. Start: 37 ± 1.5 mg
[2]
  Number of Dead Larvae: 0
  Weight ± S.E.M.: 157 ± 10 mg
  Weight Reduction ± S.E.M.: 4 ± 0.2%
TTLE biosynthesis
  Trypsin: 2.1 ± 0.3
  Inhibition (trypsin): 19 ± 3.2%

## N[C@@H](Cc1ccccc1)C(=O)N[C@@H](CO)C(=O)N1CCC[C@H]1C(=O)O [35. FSP, FSP] (H-Phe-Ser-Pro-OH; N-terminus and C-terminus assumed)
Aedes aegypti larvae
  LD50 + S.E.M.: 2.3 ± 0.13 mM

## C[C@H](NC(=O)[C@@H](N)Cc1ccc(O)cc1)C(=O)N1CCC[C@H]1C(=O)O [36. YAP, YAP] (H-Tyr-Ala-Pro-OH; N-terminus and C-terminus assumed)
Aedes aegypti larvae
  LD50 + S.E.M.: 2.3 ± 0.5 mM

## C[C@H](NC(=O)[C@H](C)NC(=O)[C@@H]1CCCN1)C(=O)O [37. PAA, PAA] (H-Pro-Ala-Ala-OH; N-terminus and C-terminus assumed)
Aedes aegypti larvae
  LD50 + S.E.M.: 2.4 ± 0.34 mM

## C[C@H](NC(=O)[C@@H]1CCCN1)C(=O)N1CCC[C@H]1C(=O)O [38. PAP, PAP] (H-Pro-Ala-Pro-OH; N-terminus and C-terminus assumed)
Aedes aegypti larvae
  LD50 + S.E.M.: 3.17 ± 0.14 mM

## C[C@H](NC(=O)[C@@H](N)Cc1ccccc1)C(=O)N1CCC[C@H]1C(=O)O [39. FAP, FAP] (H-Phe-Ala-Pro-OH; N-terminus and C-terminus assumed)
Aedes aegypti larvae
  LD50 + S.E.M.: 3.8 ± 0.23 mM

## C[C@H](N)C(=O)N[C@@H](CC(=O)O)C(=O)N1CCC[C@H]1C(=O)O [40. ADP, ADP] (H-Ala-Asp-Pro-OH; N-terminus and C-terminus assumed)
Aedes aegypti larvae
  LD50 + S.E.M.: >6.6 mM

## N[C@@H](Cc1ccc(O)cc1)C(=O)N[C@@H](CC(=O)O)C(=O)O [41. YD, YD] (H-Tyr-Asp-OH; N-terminus and C-terminus assumed)
Aedes aegypti larvae
  LD50 + S.E.M.: 1.24 ± 0.06 mM
